Reference: BindingDB's records for doi:10.1016/s0960-894x(99)00680-0 (Univ. De Valencia, 2000)

Key:
[1] = target: Phospholipase A2, major isoenzyme, pancreatic (Sus scrofa) (UniProt P00592); assay: Inhibition of secretory PLA2 activity in porcine pancreas using [3H]-oleate labelled membranes at a concentration of 10 uM
[2] = Inhibition of secretory PLA2 activity in bee venom enzyme using [3H]oleate labelled membranes at a concentration of 10 uM
[3] = Inhibition of secretory PLA2 activity in Naja naja venom enzyme using [3H]oleate labelled membranes at a concentration of 10 uM

Chain of Phospholipase A2, major isoenzyme, pancreatic (Sus scrofa) (P00592 whole entry, looked up): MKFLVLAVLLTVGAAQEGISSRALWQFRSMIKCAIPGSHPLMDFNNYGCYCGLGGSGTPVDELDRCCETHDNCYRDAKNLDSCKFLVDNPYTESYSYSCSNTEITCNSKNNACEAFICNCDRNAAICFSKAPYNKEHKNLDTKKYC

Row | Structure (SMILES) | IC50 [1] | IC50 [2] | IC50 [3]
1 | CCCCCCCCCCCCCCC(CO)NCC (stereo not given) [2-Ethylamino-hexadecan-1-ol] | 1.4 µM | 6.1 µM | –
2 | CCCCCCCCCCCCCCC(N)CN(CC)CC (stereo not given) [N*1*,N*1*-Diethyl-hexadecane-1,2-diamine] | 3.6 µM | 11 µM | 9.5 µM
